# Laboratory results taken from the supplement of paper PMC10307832.
# Columns and labels:
# Assay in all cases: relative viability (nuclei count vs DMSO), 5 days (fraction); higher = more cells survive
# [1] = compound: CN1CCN(CC1)C2=CC(=C(C=C2)NC3=NC(=C(S3)C(=O)C4=C(C=CC=C4Cl)Cl)N)OC [XMD14-99] + CC(=O)c1c(C)c2cnc(Nc3ccc(N4CCNCC4)cn3)nc2n(C2CCCC2)c1=O [Palbociclib] (partner 0.5 µM)
# In short: (§1)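 Lung cancer cell lines in 1536-well plates were dosed by pin tool the day after seeding, either with one drug alone or with a fixed anchor-drug dose plus five library-drug doses (not always all listed) in √10 steps. After 5 days, cells were fixed and their nuclei stained in one step (final 0.05% Triton X-100, 1% formaldehyde, 1 ug/ml Hoechst), then counted on 4× images. Relative viability is the nuclei count in treated wells divided by that in vehicle wells. Values are medians of duplicate plates.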
# [2] = compound: N[C@@H]1CCCN(c2c(/C=C3\SC(=O)NC3=O)cccc2-c2ccccc2)C1 [AZD1208] + CC(=O)Nc1cccc(-n2c(=O)n(C3CC3)c(=O)c3c(Nc4ccc(I)cc4F)n(C)c(=O)c(C)c32)c1 [Trametinib] (partner 0.02 µM)
# In short: as §1
# [3] = compound: N[C@@H]1CCCN(c2c(/C=C3\SC(=O)NC3=O)cccc2-c2ccccc2)C1 [AZD1208] + CC(=O)c1c(C)c2cnc(Nc3ccc(N4CCNCC4)cn3)nc2n(C2CCCC2)c1=O [Palbociclib] (partner 0.5 µM)
# In short: as §1
# [4] = compound: N[C@@H]1CCCN(c2c(/C=C3\SC(=O)NC3=O)cccc2-c2ccccc2)C1 [AZD1208] + CS(=O)(=O)N1CCN(Cc2cc3nc(-c4cccc5[nH]ncc45)nc(N4CCOCC4)c3s2)CC1 [Pictilisib] (partner 1 µM)
# In short: as §1
Cell Line,relative viability ([1]; first compound 0.08 µM),relative viability ([1]; first compound 0.8 µM),relative viability ([1]; first compound 2.53 µM),relative viability ([1]; first compound 8 µM),relative viability ([2]; first compound 0.08 µM),relative viability ([2]; first compound 0.253 µM),relative viability ([2]; first compound 0.8 µM),relative viability ([2]; first compound 2.53 µM),relative viability ([2]; first compound 8 µM),relative viability ([3]; first compound 0.08 µM),relative viability ([3]; first compound 0.253 µM),relative viability ([3]; first compound 0.8 µM),relative viability ([3]; first compound 2.53 µM),relative viability ([3]; first compound 8 µM),relative viability ([4]; first compound 0.08 µM),relative viability ([4]; first compound 0.253 µM),relative viability ([4]; first compound 0.8 µM),relative viability ([4]; first compound 8 µM),relative viability ([4]; first compound 2.53 µM)
NCI-H2228,0.749,0.56,0.774,0.278,0.578,0.669,0.36,0.525,0.343,0.764,0.911,0.804,0.6,0.656,0.207,0.328,0.381,0.285,–
NCI-H2347,0.439,0.43,0.4,0.416,0.316,0.27,0.257,0.264,0.26,0.457,0.383,0.45,0.395,0.382,0.467,0.782,0.558,0.495,0.495
NCI-H2405,0.512,0.578,0.557,0.503,0.582,0.56,0.562,0.528,0.453,0.497,0.536,0.505,0.51,0.418,0.394,0.397,0.333,0.385,0.373
NCI-H3122,0.197,0.167,0.213,0.147,0.201,0.221,0.192,0.203,0.165,0.206,0.155,0.149,0.223,0.164,0.506,0.486,0.447,0.524,0.481
PC-3 [JPC-3],0.574,0.501,0.59,0.538,0.732,0.825,0.688,0.711,0.723,0.586,0.596,0.548,0.582,0.564,0.788,0.762,0.672,0.684,0.659
PC-14,0.567,0.527,0.5,0.24,0.681,0.704,0.512,0.662,0.524,0.511,0.59,0.502,0.532,0.475,0.617,0.743,0.436,0.482,0.584
RERF-LC-KJ,1.01,1.04,0.952,0.9,0.903,0.844,0.727,0.776,0.548,1.05,1.09,1,1.02,0.802,0.434,0.526,0.464,0.368,0.438
SK-LU-1,0.418,0.42,0.356,0.266,0.46,0.531,0.446,0.491,0.585,0.341,0.373,0.375,0.421,0.401,0.459,0.607,0.532,0.431,0.567
SK-MES-1,0.345,0.343,0.372,0.223,0.47,0.509,0.54,0.533,0.482,0.299,0.348,0.316,0.307,0.311,0.257,0.326,0.303,0.291,0.3
SW 1573,0.342,0.44,0.421,0.36,0.433,0.438,0.44,0.419,0.317,0.264,0.268,0.265,0.346,0.259,0.411,0.418,0.421,0.344,0.347
